We go through three compounds from US20250230477A1, “A PROCESS FOR THE PREPARATION OF TETRAHYDROANTHRACENES FROM STREPTOMYCES SPP. AND ANTICANCER ACTIVITY THEREOF” (Council of Scientific and Industrial Research, priority 2021, published 2025).

One data set has as its system Bacillus subtilis. The experiment in a line: MIC, microtiter broth dilution. It counts as cell-based. The settings on record: dilutions 2-500 μg/ml, overnight 37° C. As to the method:
(§1) The minimum inhibitory concentrations (MIC) of purified compound showing significant zones of inhibition in the preliminary antimicrobial assay using agar well diffusion method were evaluated. MIC assay was carried out by a microtiter broth dilution method with some modifications. Stock solution of each pathogen was prepared in normal saline solution i.e. 0.85% NaCl (w/v) at a concentration of 10^8 cells/ml and finally diluted with respective growth media to give approximately 10^5 CFU/ml for all organisms. Different dilutions of compound was prepared (2-500 μg/ml) by serial dilutions. 100 μl of each concentration (2-500 μg/ml) of the compound was loaded onto each well and was mixed with 100 μl of diluted pathogens containing 10^5 CFU/ml. […] The microtitre plates were then incubated overnight at 37° C. for bacterial pathogens and 28° C. for fungal pathogens and were analysed after incubation.

The subject of another data set is Micrococcus luteus. The data set is described as follows: MIC, microtiter broth dilution. The format is cell-based. Conditions: dilutions 2-500 μg/ml, overnight 37° C. The method, then:
as §1
In general terms: In broth dilution the organism is exposed to a series of concentrations in liquid medium.

The test system of another data set is Bacillus cereus. The experiment in a line: MIC, microtiter broth dilution. The settings on record: dilutions 2-500 μg/ml, overnight 37° C. It counts as cell-based. The method, then: as §1
Another data set deals with Staphylococcus aureus. The experiment in a line: MIC, microtiter broth dilution. It counts as cell-based. Conditions: dilutions 2-500 μg/ml, overnight 37° C. The method, then:
as §1

The test system of data set [1] is HT-29. The data set is described as follows: MTT cytotoxicity. It counts as cell-based. The settings on record: Homo sapiens; HT-29, MTT, 48 hours, 100 μM concentration range. As to the method: (§2) 5×10^3 cells were seeded/well in a 96 well plate and treated with Compounds (1-3) for 48 hours with 100 μM concentration range to a panel of cancer cell lines. After 44 hour MTT with final concentration of 0.5 mg/ml were added to cells and incubated for 4 hour at 37° C. until formazon crystals are formed. MTT was removed and formazon crystals were lysed by DMSO for 30 minutes at 37° C., the absorbance was measured at 570 nm and the IC50 values were calculated using graph pad prism.

Data set [2] deals with HCT-116. The experiment in a line: MTT cytotoxicity. It counts as cell-based. The settings on record: Homo sapiens; HCT-116, MTT, 48 hours, 100 μM concentration range. The method, then: as §2
In data set [3] the test system is MCF-7. The experiment in a line: MTT cytotoxicity. Conditions: Homo sapiens, MCF7; MCF-7, MTT, 48 hours, 100 μM concentration range. The format is cell-based. The method, then:
as §2

The nature of the next data set: MTT cytotoxicity. The format is cell-based. The settings on record: human, FR2 cells, 100 μM concentration range. As to the method:
as §2

In the next data set the test system is A549. The data set is described as follows: MTT cytotoxicity. It counts as cell-based. The settings on record: Homo sapiens, 48 hours, 100 μM concentration range. The method, then: as §2
Data set [4] has as its system MiaPaca-2. The data set is described as follows: MTT cytotoxicity. The format is cell-based. The settings on record: Homo sapiens, MIA PaCa-2; MiaPaca-2, MTT, 48 hours, 100 μM concentration range. The method, then: as §2
In another data set the test system is MDA-MB-231. The experiment in a line: MTT cytotoxicity. The format is cell-based. The settings on record: Homo sapiens; MDA-MB-231, MTT, 48 hours, 100 μM concentration range. The method, then:
as §2

Another data set deals with PC3. The experiment in a line: MTT cytotoxicity. The settings on record: Homo sapiens, PC-3, 48 hours, 100 μM concentration range. It counts as cell-based. The method, then:
as §2

Another data set deals with Panc-1. The data set is described as follows: MTT cytotoxicity. Conditions: Homo sapiens; Panc-1, MTT, 48 hours, 100 μM concentration range. It counts as cell-based. As to the method: as §2
The test system of another data set is Sarcoma-180. Conditions: Sarcoma-180 mouse solid tumor model, 200 mg/kg per day for seven days; cited from earlier work.
Data set [5] concerns Gram positive bacteria i.e. S. aureus, B. subtilis, B. cereus, and M. smegmatis. Conditions: literature 1978; cited from earlier work.
Data set [6] concerns HCT-116. The data set is described as follows: Transwell invasion assay. The format is cell-based. The settings on record: HCT-116, 48 hours, increasing concentration. As to the method: (§3) The above results depict significant antiproliferative effects of setomimycin in different cell lines near IC50 values. Transwell invasion assay was performed to check the anti-invasive properties of setomimycin. […] (A-B) 1.2×10^6 HCT-116 and MCF-7 cells were seeded in the upper chamber of inserts in serum free medium and treated with indicated concentration of setomimycin for 48 hours. (After 48 hours the invaded cells from lower insert were fixed with ice cold methanol and stained with 0.1% crystal violet for 20-30 minutes. After staining the inserts were washed with dH2O thoroughly and cells from three different fields in each treated condition were counted and photographed under an inverted microscope (20× magnifications). (C-D) Bar graph representing the number of invaded cells (n=3, error bars indicate ±SD).

The test system of data set [7] is MCF-7. The data set is described as follows: Transwell invasion assay. It counts as cell-based. Conditions: MCF-7, 48 hours, increasing concentration. The method, then:
as §3

The test system of data set [8] is MiaPaca-2. The experiment in a line: Colony formation assay. The format is cell-based, human. The settings on record: MiaPaca-2, concentrations nearby the IC50, 5 days. As to the method: (§4) Colony formation assay was performed to further certify the antiproliferative properties of setomimycin in four different cancer cell lines viz. HT-29, MiaPaca-2, HCT-116 and MCF-7. Cells were seeded onto 6 well plates at seeding density 1×10^3 fells/well and treated with increasing concentration of setomimycin nearby the IC50 values for 5 days. Upon termination the cells were stained with 0.1% crystal violet for 20-30 minutes and washed with dH2O thoroughly. The images were taken from plates with NIKON camera (D3100). Average colonies (n=3) were quantified from different fields. Bar graphs represent the number of colonies (n=3, error bars indicate ±SD).

In data set [9] the test system is HT-29. The data set is described as follows: Colony formation assay. The settings on record: HT-29, concentrations nearby the IC50, 5 days. It counts as cell-based. The method, then:
as §4

In data set [10] the test system is HCT-116. The data set is described as follows: Colony formation assay. It counts as cell-based. The settings on record: HCT-116, concentrations nearby the IC50, 5 days. The method, then: as §4
Data set [11] has as its system MCF-7. The experiment in a line: Colony formation assay. The format is cell-based. The settings on record: MCF-7, concentrations nearby the IC50, 5 days. As to the method:
as §4

Data set [12] deals with HT-29. The experiment in a line: Scratch assay (migration). Conditions: HT-29, concentrations within the range of IC50. It counts as cell-based. The method, then:
(§5) Scratch assay was performed in the panel of cancer cell lines with varying degree of invasive and migratory capabilities as shown in FIG. 4. Our results unveiled that setomimycin inhibited the migratory potential of all the cell lines treated with different concentration of setomimycin within the range of their IC50 values. […] 5×10^5 cells were seeded onto 6 well plate and grown upto more than 90% confluency. After the proper attachment of cells wounds were created with the help of a 20-200 μL sterile pipette tip. Subsequently the cells were treated with indicated concentration of setomimycin and vehicle (DMSO). The images were taken under inverted microscope at 20× magnification.

Data set [13] concerns HCT-116. The experiment in a line: Scratch assay (migration). The format is cell-based. Conditions: HCT-116, concentrations within the range of IC50. The method, then: as §5
Data set [14] deals with MCF-7. The data set is described as follows: Scratch assay (migration). The format is cell-based. Conditions: MCF-7, concentrations within the range of IC50. The method, then:
as §5

Data set [15] has as its system MiaPaca-2. The experiment in a line: Scratch assay (migration). It counts as cell-based, human. Conditions: MiaPaca-2, concentrations within the range of IC50. The method, then:
as §5

Another data set has as its system Phospho MEK. The experiment in a line: Western blotting. Conditions: HCT-116 and MCF-7 cells, 48 h, increasing concentration. It counts as cell-based. The method, then: (§6) FIG. 5 Illustrates effect of setomimycin (Compound-3) pro-proliferative and anti-apoptotic protein targets in cancer cells: (A-B) Immunoblot analysis of ERK, p-MEK, Par-4, BCL-2 and β-actin in HCT-116 and MCF-7 cells treated with setomimycin for 48 h. (C-D) Densitometry analysis showing relative protein expression for the western blots presented Strong active potential of setomimycin against tumor cell proliferation and migration at nearby concentration of IC50 values was depicted by MTT data. Further, molecular docking studies predicted the strong affinity of setomimycin targeting MEK pathway. ERK and MEK are the major signaling pathways regulating cancer cell proliferation, differentiation and apoptosis. Therefore, Western blotting was carried out to check the effects of Setomimycin on ERK and MEK proteins.
On the technique in general: Immunoblotting shows a protein as a band on a membrane.

The test system of the next data set is ERK. The experiment in a line: Western blotting. Conditions: HCT-116 and MCF-7 cells, 48 h. The format is cell-based. The method, then: as §6
A further data set relates to BCL-2. The data set is described as follows: Western blotting. It counts as cell-based. The settings on record: HCT-116 and MCF-7 cells, 48 h. As to the method: as §6
The next data set deals with Par-4. The data set is described as follows: Western blotting. The format is cell-based. The settings on record: HCT-116 and MCF-7 cells, 48 h. The method, then: as §6

One may read the IC50 as the concentration at which inhibition is half-maximal. A lower IC50 goes with greater potency in that assay.

As to `CC(=O)[C@H]1c2cc3cccc(O)c3c(O)c2C(=O)C[C@]1(C)O` [Compound-1], the “Minimum Inhibitory Concentration” value is on record as 12 with Bacillus subtilis, 6 in the data set with Micrococcus luteus, 12 with Bacillus cereus and 25 in the data set on Staphylococcus aureus. In addition, the IC50 was found to be 8.64 µM in the data set with HT-29 [1]; 10.4 µM with HCT-116 [2]; 9.56 µM in the data set on MCF-7 [3]; 38.9 µM in the data set with A549; 12.7 µM with MiaPaca-2 [4]; 13.6 µM with MDA-MB-231. Besides, the figures for the 50% inhibitory concentration (IC50) in the data set with PC3 and in the data set on Panc-1 were 14.7 µM and 15.6 µM, respectively. Further, in the data set “MTT cytotoxicity”, the IC50 at 48 h turned out to be 48.7 µM.

For `CC(=O)[C@H]1c2c(c(O)c3c(O)cccc3c2-c2c3c(c(O)c4c(O)cccc24)C(=O)C[C@](C)(O)[C@H]3C(C)=O)C(=O)C[C@]1(C)O` [Compound-2], the “Minimum Inhibitory Concentration” value in the data set with Bacillus subtilis was 6; in the data set with Micrococcus luteus it was 4; in the data set on Bacillus cereus it was 6; in the data set on Staphylococcus aureus, 12. Further, the IC50 in the data set with HT-29 [1] was determined as 15.5 µM; with HCT-116 [2], 18.9 µM; in the data set with MCF-7 [3], 11.2 µM; in the data set with A549 it was 38.7 µM; in the data set on MiaPaca-2 [4], 8.31 µM; in the data set with MDA-MB-231, 12.5 µM. Moreover, the concentration for half-maximal inhibition (IC50) in the data set with PC3 worked out at 17.5 µM; in the data set with Panc-1, 21.3 µM. Besides, the concentration for half-maximal inhibition (IC50) at 48 h in the data set “MTT cytotoxicity” came to 62.3 µM.

In the case of `CC(=O)[C@@H]1C(C)=CC(=O)c2c1c(-c1c3c(c(O)c4c(O)cccc14)C(=O)C[C@](C)(O)[C@H]3C(C)=O)c1cccc(O)c1c2O` [Compound-3, Setomimycin], the Tumor growth entry with Sarcoma-180 is reported as “reduce tumor growth”. In data set [5], the “Activity against Gram positive bacteria” value is listed as “active”. The “Minimum Inhibitory Concentration” value with Bacillus subtilis stood at 16; in the data set with Micrococcus luteus it was 8; in the data set with Bacillus cereus it was 4; in the data set with Staphylococcus aureus, 8. Besides, the “Invasion of cells, transwell” value in the data set on HCT-116 [6] and with MCF-7 [7] was “significantly inhibited” throughout. Moreover, the “Antiproliferative effect, colony formation” value in the data set with MiaPaca-2 [8], in the data set on HT-29 [9], with HCT-116 [10] and in the data set on MCF-7 [11] was “promising results near the IC50 values” throughout. In addition, the IC50 was found to be 4.2 µM in the data set on HT-29 [1]; 5.3 µM with HCT-116 [2]; 6.9 µM in the data set on MCF-7 [3]; 11.5 µM in the data set with A549; 4.57 µM with MiaPaca-2 [4]; 7.5 µM with MDA-MB-231. Also, the half-inhibitory concentration (IC50) in the data set with PC3 amounted to 7.02 µM; with Panc-1, 48 µM. For the same compound, in the data set “MTT cytotoxicity”, the midpoint of inhibition, the IC50 at 48 h, lay at 53.3 µM. Besides, the “Cell migration, scratch assay” value with HT-29 [12], with HCT-116 [13], with MCF-7 [14] and in the data set with MiaPaca-2 [15] was “inhibited the cell migration” throughout. Besides, the “Phospho MEK expression, Western blot” value in the data set on Phospho MEK was “down regulated”. Besides, the “ERK protein expression, Western blot” value with ERK is reported as “downregulation”. Further, the “BCL-2 (antiapoptotic protein) expression, Western blot” value with BCL-2 is “downregulated”. Also, the “Par-4 (pro-apoptotic protein) expression, Western blot” value in the data set on Par-4 was “upregulated”.
